PubChem BioAssay (NCI)
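Assay format: 96-well plates, 48-hour exposure. TGI denotes the concentration required for complete inhibition of growth.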

Legend:
Experiment in all cases: NCI anticancer screen, dose series, 48 h
CCRF-CEM leukemia = system: CCRF-CEM leukemia
HL-60(TB) leukemia = system: HL-60(TB) leukemia
HOP-62 NSCLC = system: HOP-62 NSCLC
HS 578T breast = system: HS 578T breast
IGROV1 ovarian = system: IGROV1 ovarian
LOX IMVI melanoma = system: LOX IMVI melanoma
MOLT-4 leukemia = system: MOLT-4 leukemia
NCI/ADR-RES ovarian = system: NCI/ADR-RES ovarian
OVCAR-8 ovarian = system: OVCAR-8 ovarian
RXF 393 renal = system: RXF 393 renal
SF-539 CNS = system: SF-539 CNS
SK-MEL-2 melanoma = system: SK-MEL-2 melanoma
SN12C renal = system: SN12C renal
UACC-62 melanoma = system: UACC-62 melanoma
UO-31 renal = system: UO-31 renal

SMILES: O=C(N[C@H]1CCC[C@H]1C(=O)Nc1ccc(C(F)(F)F)cc1)OCc1ccccc1
- TGI (CCRF-CEM leukemia): > 100 µM
- TGI (HL-60(TB) leukemia): > 100 µM
- TGI (HOP-62 NSCLC): > 100 µM
- TGI (HS 578T breast): > 100 µM
- TGI (IGROV1 ovarian): > 100 µM
- TGI (LOX IMVI melanoma): > 100 µM
- TGI (MOLT-4 leukemia): > 100 µM
- TGI (NCI/ADR-RES ovarian): > 100 µM
- TGI (OVCAR-8 ovarian): > 100 µM
- TGI (RXF 393 renal): > 100 µM
- TGI (SF-539 CNS): > 100 µM
- TGI (SK-MEL-2 melanoma): > 100 µM
- TGI (SN12C renal): > 100 µM
- TGI (UACC-62 melanoma): > 100 µM
- TGI (UO-31 renal): > 100 µM

SMILES: COc1ccc(C2C(C#N)=C(S)N(C3OC(CO)C(O)C(O)C3O)C(C)=C2C(C)=O)cc1 (stereo not given)
- TGI (CCRF-CEM leukemia): > 100 µM
- TGI (HL-60(TB) leukemia): > 100 µM
- TGI (HOP-62 NSCLC): > 100 µM
- TGI (HS 578T breast): > 100 µM
- TGI (IGROV1 ovarian): > 100 µM
- TGI (LOX IMVI melanoma): > 100 µM
- TGI (MOLT-4 leukemia): > 100 µM
- TGI (NCI/ADR-RES ovarian): > 100 µM
- TGI (OVCAR-8 ovarian): > 100 µM
- TGI (RXF 393 renal): > 100 µM
- TGI (SF-539 CNS): > 100 µM
- TGI (SK-MEL-2 melanoma): > 100 µM
- TGI (SN12C renal): > 100 µM
- TGI (UACC-62 melanoma): > 100 µM
- TGI (UO-31 renal): > 100 µM

SMILES: CS(=O)(=O)OCC1CCCCCCCCCCC12SCCCS2 (stereo not given)
- TGI (CCRF-CEM leukemia): > 100 µM
- TGI (HL-60(TB) leukemia): > 100 µM
- TGI (HOP-62 NSCLC): > 100 µM
- TGI (HS 578T breast): > 100 µM
- TGI (IGROV1 ovarian): > 100 µM
- TGI (LOX IMVI melanoma): > 100 µM
- TGI (MOLT-4 leukemia): > 100 µM
- TGI (NCI/ADR-RES ovarian): > 100 µM
- TGI (OVCAR-8 ovarian): > 100 µM
- TGI (RXF 393 renal): > 100 µM
- TGI (SF-539 CNS): > 100 µM
- TGI (SK-MEL-2 melanoma): > 100 µM
- TGI (SN12C renal): > 100 µM
- TGI (UACC-62 melanoma): > 100 µM
- TGI (UO-31 renal): > 100 µM

SMILES: CCN(CC)C1Oc2cc3c(cc2C(c2cccc(OC)c2O)C1C)OCO3 (stereo not given)
- TGI (CCRF-CEM leukemia): 16.3 µM
- TGI (HL-60(TB) leukemia): 7.18 µM
- TGI (HOP-62 NSCLC): 21.3 µM
- TGI (HS 578T breast): 18.7 µM
- TGI (IGROV1 ovarian): > 56 µM
- TGI (LOX IMVI melanoma): 22.2 µM
- TGI (MOLT-4 leukemia): 28 µM
- TGI (NCI/ADR-RES ovarian): 53.8 µM
- TGI (OVCAR-8 ovarian): > 80.8 µM
- TGI (RXF 393 renal): 21.2 µM
- TGI (SF-539 CNS): 6.3 µM
- TGI (SK-MEL-2 melanoma): 27.4 µM
- TGI (SN12C renal): 16.4 µM
- TGI (UACC-62 melanoma): 28.5 µM
- TGI (UO-31 renal): 49.5 µM

SMILES: COc1cc(/C=C/C(=N\NC(=S)NN)c2sc(NNC(C)=O)nc2C)ccc1O
- TGI (CCRF-CEM leukemia): > 100 µM
- TGI (HL-60(TB) leukemia): > 100 µM
- TGI (HOP-62 NSCLC): > 100 µM
- TGI (HS 578T breast): > 100 µM
- TGI (IGROV1 ovarian): > 100 µM
- TGI (LOX IMVI melanoma): > 100 µM
- TGI (MOLT-4 leukemia): > 100 µM
- TGI (NCI/ADR-RES ovarian): > 100 µM
- TGI (OVCAR-8 ovarian): > 100 µM
- TGI (RXF 393 renal): > 100 µM
- TGI (SF-539 CNS): > 100 µM
- TGI (SK-MEL-2 melanoma): > 100 µM
- TGI (SN12C renal): > 100 µM
- TGI (UACC-62 melanoma): > 100 µM
- TGI (UO-31 renal): > 100 µM

SMILES: CC(=O)c1[nH]c(Nc2ccc(C)cc2)c(C(=S)Nc2ccccc2)c1N
- TGI (CCRF-CEM leukemia): 62.1 µM
- TGI (HL-60(TB) leukemia): 54.1 µM
- TGI (HOP-62 NSCLC): 42.1 µM
- TGI (HS 578T breast): 52.3 µM
- TGI (IGROV1 ovarian): 35.7 µM
- TGI (LOX IMVI melanoma): 33.3 µM
- TGI (MOLT-4 leukemia): > 100 µM
- TGI (NCI/ADR-RES ovarian): 89.4 µM
- TGI (OVCAR-8 ovarian): 39.4 µM
- TGI (RXF 393 renal): 27.9 µM
- TGI (SF-539 CNS): > 100 µM
- TGI (SK-MEL-2 melanoma): 31.9 µM
- TGI (SN12C renal): 35 µM
- TGI (UACC-62 melanoma): 31.7 µM
- TGI (UO-31 renal): 28.4 µM

SMILES: COc1ccc(Cn2c3ccc([N+](=O)[O-])cc3c(=O)n2Cc2ccccn2)cc1
- TGI (CCRF-CEM leukemia): > 100 µM
- TGI (HL-60(TB) leukemia): 75.1 µM
- TGI (HOP-62 NSCLC): > 100 µM
- TGI (HS 578T breast): > 100 µM
- TGI (IGROV1 ovarian): > 100 µM
- TGI (LOX IMVI melanoma): > 100 µM
- TGI (MOLT-4 leukemia): > 100 µM
- TGI (NCI/ADR-RES ovarian): > 100 µM
- TGI (OVCAR-8 ovarian): > 100 µM
- TGI (RXF 393 renal): > 100 µM
- TGI (SF-539 CNS): > 100 µM
- TGI (SK-MEL-2 melanoma): > 100 µM
- TGI (SN12C renal): > 100 µM
- TGI (UACC-62 melanoma): > 100 µM
- TGI (UO-31 renal): > 100 µM

SMILES: COc1ccc(N2N=NN(C(C)C)/C2=C(/Cl)c2nnnn2-c2ccc(OC)cc2)cc1
- TGI (CCRF-CEM leukemia): 4.24 µM
- TGI (HL-60(TB) leukemia): 5.15 µM
- TGI (HOP-62 NSCLC): 37.1 µM
- TGI (HS 578T breast): 52.6 µM
- TGI (IGROV1 ovarian): 28.7 µM
- TGI (LOX IMVI melanoma): 6.82 µM
- TGI (MOLT-4 leukemia): 14.8 µM
- TGI (NCI/ADR-RES ovarian): 61.2 µM
- TGI (OVCAR-8 ovarian): 18 µM
- TGI (RXF 393 renal): 27.4 µM
- TGI (SF-539 CNS): 33.5 µM
- TGI (SK-MEL-2 melanoma): 29.6 µM
- TGI (SN12C renal): 28.2 µM
- TGI (UACC-62 melanoma): 28.7 µM
- TGI (UO-31 renal): 10.8 µM

SMILES: OC(C1CCCCCCCCCC1)C(O)C1CCCCCCCCCC1 (stereo not given)
- TGI (CCRF-CEM leukemia): > 100 µM
- TGI (HL-60(TB) leukemia): > 100 µM
- TGI (HOP-62 NSCLC): > 100 µM
- TGI (HS 578T breast): > 100 µM
- TGI (IGROV1 ovarian): > 100 µM
- TGI (LOX IMVI melanoma): > 100 µM
- TGI (MOLT-4 leukemia): > 100 µM
- TGI (NCI/ADR-RES ovarian): > 100 µM
- TGI (OVCAR-8 ovarian): > 100 µM
- TGI (RXF 393 renal): > 100 µM
- TGI (SF-539 CNS): > 100 µM
- TGI (SK-MEL-2 melanoma): > 100 µM
- TGI (SN12C renal): > 100 µM
- TGI (UACC-62 melanoma): > 100 µM
- TGI (UO-31 renal): > 100 µM
